Laboratory results from PubChem BioAssay (NCI).
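Protocol summary: plate cells (96-well), add compound at 5 concentrations, incubate 48 h, interpolate endpoints linearly. Abbreviation: GI50, concentration required for 50% inhibition of growth. TGI: concentration producing complete growth inhibition.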

How the values were obtained:
Test in all cases: NCI tumour cell line growth inhibition, 48 h
A549 NSCLC = tested on: A549 NSCLC
UO-31 renal = tested on: UO-31 renal
HCT-15 colon = tested on: HCT-15 colon
KM12 colon = tested on: KM12 colon
HCT-116 colon = tested on: HCT-116 colon
SNB-75 CNS = tested on: SNB-75 CNS
786-0 renal = tested on: 786-0 renal
NCI-H23 lung = tested on: NCI-H23 lung
BT-549 breast = tested on: BT-549 breast
MDA-MB-231 breast = tested on: MDA-MB-231 breast
OVCAR-8 ovarian = tested on: OVCAR-8 ovarian
SN12C renal = tested on: SN12C renal
SF-268 CNS = tested on: SF-268 CNS
SNB-19 CNS = tested on: SNB-19 CNS
K-562 leukemia = tested on: K-562 leukemia
IGROV1 ovarian = tested on: IGROV1 ovarian
OVCAR-4 ovarian = tested on: OVCAR-4 ovarian
SW-620 colon = tested on: SW-620 colon
RPMI-8226 leukemia = tested on: RPMI-8226 leukemia
M14 melanoma = tested on: M14 melanoma
SF-295 CNS = tested on: SF-295 CNS
SK-MEL-5 melanoma = tested on: SK-MEL-5 melanoma
UACC-62 melanoma = tested on: UACC-62 melanoma
NCI/ADR-RES ovarian = tested on: NCI/ADR-RES ovarian
CCRF-CEM leukemia = tested on: CCRF-CEM leukemia
UACC-257 melanoma = tested on: UACC-257 melanoma
HL-60(TB) leukemia = tested on: HL-60(TB) leukemia
SK-MEL-2 melanoma = tested on: SK-MEL-2 melanoma
NCI-H226 lung = tested on: NCI-H226 lung
SR leukemia = tested on: SR leukemia
NCI-H460 lung = tested on: NCI-H460 lung
MCF7 breast = tested on: MCF7 breast
HT29 colon = tested on: HT29 colon
EKVX NSCLC = tested on: EKVX NSCLC
SF-539 CNS = tested on: SF-539 CNS
A498 renal = tested on: A498 renal
NCI-H522 lung = tested on: NCI-H522 lung
LOX IMVI melanoma = tested on: LOX IMVI melanoma
DU-145 prostate = tested on: DU-145 prostate
OVCAR-3 ovarian = tested on: OVCAR-3 ovarian
COLO 205 colon = tested on: COLO 205 colon
MDA-MB-435 = tested on: MDA-MB-435
U251 CNS = tested on: U251 CNS
RXF 393 renal = tested on: RXF 393 renal
MOLT-4 leukemia = tested on: MOLT-4 leukemia
OVCAR-5 ovarian = tested on: OVCAR-5 ovarian
TK-10 renal = tested on: TK-10 renal
SK-MEL-28 melanoma = tested on: SK-MEL-28 melanoma
HS 578T breast = tested on: HS 578T breast
PC-3 prostate = tested on: PC-3 prostate
ACHN renal = tested on: ACHN renal
CAKI-1 renal = tested on: CAKI-1 renal
SK-OV-3 ovarian = tested on: SK-OV-3 ovarian
HOP-92 NSCLC = tested on: HOP-92 NSCLC
HOP-62 NSCLC = tested on: HOP-62 NSCLC
HCC-2998 colon = tested on: HCC-2998 colon
MALME-3M melanoma = tested on: MALME-3M melanoma

## COC(=O)C(Cc1ccccc1)C(=O)C(CC(=O)OC(C)(C)C)NC(=O)OC(C)(C)C (stereo not drawn)
A549 NSCLC
  GI50: 26.2 µg/mL
UO-31 renal
  GI50: 24.7 µg/mL
  TGI: 66.8 µg/mL
HCT-15 colon
  GI50: 28.2 µg/mL
KM12 colon
  GI50: 59.7 µg/mL
HCT-116 colon
  GI50: 26.5 µg/mL
  TGI: 87.9 µg/mL

## Cc1nn(-c2ccc(Br)cc2)c(C)c1CC(=O)c1cc(O)ccc1O
SNB-75 CNS
  GI50: 10.8 µM
  TGI: 31.1 µM
786-0 renal
  GI50: 20.5 µM
  TGI: > 50 µM
NCI-H23 lung
  GI50: 10.9 µM
  TGI: 35.7 µM
BT-549 breast
  GI50: 15.8 µM
  TGI: 38.4 µM
MDA-MB-231 breast
  GI50: 5.35 µM
  TGI: 15 µM
OVCAR-8 ovarian
  GI50: 8.09 µM
  TGI: 23.2 µM
A549 NSCLC
  GI50: 10.5 µM
  TGI: 20.7 µM
SN12C renal
  GI50: 6.79 µM
  TGI: 16.6 µM
SF-268 CNS
  GI50: 5.6 µM
  TGI: 17.6 µM
SNB-19 CNS
  GI50: 15 µM
  TGI: > 50 µM
K-562 leukemia
  GI50: 3.02 µM
  TGI: 29.5 µM
IGROV1 ovarian
  GI50: 17.2 µM
  TGI: > 50 µM
OVCAR-4 ovarian
  GI50: 15.9 µM
  TGI: > 50 µM
SW-620 colon
  GI50: 14.4 µM
  TGI: > 50 µM
RPMI-8226 leukemia
  GI50: 8.21 µM
  TGI: > 50 µM
M14 melanoma
  GI50: 29.6 µM
  TGI: > 50 µM
SF-295 CNS
  GI50: 14.9 µM
  TGI: 30.3 µM
SK-MEL-5 melanoma
  GI50: 6.84 µM
  TGI: 20.3 µM
UACC-62 melanoma
  GI50: 4.24 µM
  TGI: 11.4 µM
UO-31 renal
  GI50: 15.9 µM
  TGI: > 50 µM
NCI/ADR-RES ovarian
  GI50: 11.2 µM
  TGI: 45.6 µM
CCRF-CEM leukemia
  GI50: 19 µM
  TGI: > 50 µM
UACC-257 melanoma
  GI50: 11.2 µM
  TGI: 26.6 µM
HCT-15 colon
  GI50: 4.61 µM
  TGI: 15.8 µM
KM12 colon
  GI50: 5.91 µM
  TGI: > 50 µM
HL-60(TB) leukemia
  GI50: 11.9 µM
  TGI: > 50 µM
SK-MEL-2 melanoma
  GI50: 23 µM
  TGI: > 50 µM
NCI-H226 lung
  GI50: 7.69 µM
  TGI: 19.3 µM
SR leukemia
  GI50: 0.911 µM
  TGI: > 50 µM
NCI-H460 lung
  GI50: 8.34 µM
  TGI: 19.3 µM
MCF7 breast
  GI50: 6.27 µM
  TGI: 18.8 µM
HT29 colon
  GI50: 13.2 µM
  TGI: 36.7 µM
EKVX NSCLC
  GI50: 21.3 µM
  TGI: > 50 µM
HCT-116 colon
  GI50: 12.6 µM
  TGI: > 50 µM
SF-539 CNS
  GI50: 11.5 µM
  TGI: 28 µM
A498 renal
  GI50: 7.18 µM
  TGI: 47.3 µM
NCI-H522 lung
  GI50: 16 µM
  TGI: > 50 µM
LOX IMVI melanoma
  GI50: 4.13 µM
  TGI: 13.9 µM
DU-145 prostate
  GI50: 14.8 µM
  TGI: 44.6 µM
OVCAR-3 ovarian
  GI50: 12.9 µM
  TGI: 38.8 µM
COLO 205 colon
  GI50: 16.4 µM
  TGI: > 50 µM
MDA-MB-435
  GI50: 6.92 µM
  TGI: > 50 µM
U251 CNS
  GI50: 10.1 µM
  TGI: 21.8 µM
RXF 393 renal
  GI50: 9.01 µM
  TGI: 27.8 µM
MOLT-4 leukemia
  GI50: 3.26 µM
  TGI: > 50 µM
OVCAR-5 ovarian
  GI50: 16.2 µM
  TGI: > 50 µM
TK-10 renal
  GI50: 15.5 µM
  TGI: > 50 µM
SK-MEL-28 melanoma
  GI50: 12.6 µM
  TGI: 47.5 µM
HS 578T breast
  GI50: 22.7 µM
  TGI: > 50 µM
PC-3 prostate
  GI50: 9.97 µM
  TGI: > 50 µM
ACHN renal
  GI50: 9.16 µM
  TGI: 24.6 µM
CAKI-1 renal
  GI50: 12.2 µM
  TGI: 27.3 µM

## COc1ccc(-c2nocc2-c2cc(OC)c(OC)c(OC)c2)cc1
SNB-75 CNS
  GI50: 0.0751 µM
  TGI: > 100 µM
786-0 renal
  GI50: 0.109 µM
  TGI: 31.6 µM
NCI-H23 lung
  GI50: 0.445 µM
  TGI: > 86.5 µM
BT-549 breast
  GI50: 0.112 µM
  TGI: 19.5 µM
MDA-MB-231 breast
  GI50: 0.35 µM
  TGI: > 58.4 µM
OVCAR-8 ovarian
  GI50: 0.228 µM
  TGI: > 100 µM
A549 NSCLC
  GI50: 0.0907 µM
  TGI: > 100 µM
SN12C renal
  GI50: 0.942 µM
  TGI: > 96.2 µM
SF-268 CNS
  GI50: 0.683 µM
  TGI: > 85.9 µM
SK-OV-3 ovarian
  GI50: 0.142 µM
  TGI: > 82.8 µM
SNB-19 CNS
  GI50: 0.175 µM
  TGI: > 100 µM
K-562 leukemia
  GI50: 0.0426 µM
  TGI: > 100 µM
HOP-92 NSCLC
  GI50: 2.02 µM
  TGI: 59 µM
IGROV1 ovarian
  GI50: 0.346 µM
  TGI: > 100 µM
OVCAR-4 ovarian
  GI50: 2.21 µM
  TGI: > 100 µM
SW-620 colon
  GI50: 0.0466 µM
  TGI: > 100 µM
RPMI-8226 leukemia
  GI50: 0.348 µM
  TGI: 30.9 µM
M14 melanoma
  GI50: 0.054 µM
  TGI: 5.82 µM
SF-295 CNS
  GI50: 0.0475 µM
  TGI: 16.9 µM
SK-MEL-5 melanoma
  GI50: 0.0736 µM
  TGI: 4.45 µM
UACC-62 melanoma
  GI50: 0.0489 µM
  TGI: 18.9 µM
UO-31 renal
  GI50: 0.54 µM
  TGI: 29 µM
NCI/ADR-RES ovarian
  GI50: 0.0492 µM
  TGI: > 61 µM
HOP-62 NSCLC
  GI50: 0.138 µM
  TGI: > 100 µM
CCRF-CEM leukemia
  GI50: 0.189 µM
  TGI: > 100 µM
HCT-15 colon
  GI50: 0.0447 µM
  TGI: > 100 µM
KM12 colon
  GI50: 0.0386 µM
  TGI: 14.1 µM
HL-60(TB) leukemia
  GI50: 0.0387 µM
  TGI: 0.886 µM
SK-MEL-2 melanoma
  GI50: 0.0664 µM
  TGI: 69.2 µM
NCI-H226 lung
  GI50: 14.9 µM
  TGI: 56.1 µM
SR leukemia
  GI50: 0.0497 µM
  TGI: > 76.3 µM
NCI-H460 lung
  GI50: 0.048 µM
  TGI: 15.5 µM
MCF7 breast
  GI50: 0.0387 µM
  TGI: > 100 µM
HT29 colon
  GI50: 0.0379 µM
  TGI: 4.76 µM
EKVX NSCLC
  GI50: 0.121 µM
  TGI: > 100 µM
HCT-116 colon
  GI50: 0.0412 µM
  TGI: 13.1 µM
SF-539 CNS
  GI50: 0.132 µM
  TGI: 20.7 µM
A498 renal
  GI50: 0.0441 µM
  TGI: 2.9 µM
NCI-H522 lung
  GI50: 0.0323 µM
  TGI: 0.499 µM
LOX IMVI melanoma
  GI50: 0.212 µM
  TGI: > 74.5 µM
DU-145 prostate
  GI50: 0.286 µM
  TGI: > 100 µM
OVCAR-3 ovarian
  GI50: 0.0364 µM
  TGI: 0.474 µM
COLO 205 colon
  GI50: 0.0531 µM
  TGI: 1.24 µM
MDA-MB-435
  GI50: 0.0239 µM
  TGI: 0.13 µM
U251 CNS
  GI50: 0.0793 µM
  TGI: > 81.1 µM
HCC-2998 colon
  GI50: 0.358 µM
  TGI: 28 µM
RXF 393 renal
  GI50: 0.14 µM
  TGI: 0.797 µM
MOLT-4 leukemia
  GI50: 0.3 µM
  TGI: > 100 µM
OVCAR-5 ovarian
  GI50: 1.38 µM
  TGI: > 100 µM
MALME-3M melanoma
  GI50: 21.6 µM
  TGI: 60.7 µM
TK-10 renal
  GI50: 0.93 µM
  TGI: 62.7 µM
SK-MEL-28 melanoma
  GI50: 6.9 µM
  TGI: > 89.9 µM
HS 578T breast
  GI50: 0.216 µM
  TGI: > 100 µM
PC-3 prostate
  GI50: 0.0536 µM
  TGI: 37.6 µM
ACHN renal
  GI50: 1.53 µM
  TGI: > 70.3 µM
CAKI-1 renal
  GI50: 0.236 µM
  TGI: > 100 µM
